Measurements as given in patent publication US9999605B2, “Preparation for treatment of a non-oral treatment site comprising an active chlorine compound and amino acids” (RLS GLOBAL AB, priority 2012, dated 2018).

Assays:
amputation wound = experiment: Example 4: treatment of an amputation wound; type: in vivo, human; details: 750 mg×3, prescribed May 24, 2012, before the test treatments
Method: If nothing else is mentioned herein below, the treatment preparation used in the examples below was prepared just before application by mixing one volume of a component containing aqueous NaOCl in an amount of 1-2% (by weight) with one volume of a component containing amino acids lys+Glu+Leu (1:1:1 relation and 0.7-0.8% total amino content by weight), TiO2 (0.04% by weight), NaCl (0.3-0.6% by weight), Na-CMC (medium viscosity; 3% by weight), and NaOH (added to adjust the pH to be 9.5-10.5 by weight). Medium viscosity of carboxymethyl cellulose is defined as 400-800 (mPas).
The components were mixed and the resulting mixture, i.e. the treatment preparation, was applied immediately (within seconds at the most one minute) to the treatment site, e.g. an ulcer. In this way there was provided that the mentioned chemical reaction forming halogenated amino acids occurs in contact with the treatment site. The resulting chemical reaction was allowed to proceed so as to separate dead tissue from healthy tissue as well as decomposing and/or destroying bacteria. The mixture in the form a solution was left within the treatment area, e.g. ulcer, for 5 minutes or less, wherein the reaction proceeds such that bubbles and a smell of chlorine appear and then disappear in the preparation. […]

Staphylococcus = experiment: Example 2: bacterial cultivation, resistance; type: cell-based; details: bacterial cultivation from the leg ulcer

Row | SMILES | effect of antibiotic on non-healing amputation wound (amputation wound) | resistance of cultivated Staphylococcus (Staphylococcus)
1 | Cc1onc(-c2c(F)cccc2Cl)c1C(=O)N[C@@H]1C(=O)N2[C@@H]1SC(C)(C)[C@@H]2C(=O)O [Heracillin®] | did not improve their condition | –
2 | CC1(C)S[C@@H]2[C@H](NC(=O)COc3ccccc3)C(=O)N2[C@H]1C(=O)O [fenoximetylpenicillin] | – | resistant
3 | Cc1onc(-c2c(F)cccc2Cl)c1C(=O)N[C@@H]1C(=O)N2[C@@H]1SC(C)(C)[C@@H]2C(=O)O [flukloxacillin] | – | resistant
